SMILES strings stand for the structures.

Common to all, as to assay: competitive isoTOP-ABPP
Type in all cases: binding

Experiment [1] has as its target T1, UBA2 SUMO-activating enzyme subunit 2 (Homo sapiens, UniProt Q9UBT2).
T1 construct: endogenous in cells; host or cells: MDA-MB-231 (soluble fraction of lysate)
T1 sequence (Q9UBT2 1-640): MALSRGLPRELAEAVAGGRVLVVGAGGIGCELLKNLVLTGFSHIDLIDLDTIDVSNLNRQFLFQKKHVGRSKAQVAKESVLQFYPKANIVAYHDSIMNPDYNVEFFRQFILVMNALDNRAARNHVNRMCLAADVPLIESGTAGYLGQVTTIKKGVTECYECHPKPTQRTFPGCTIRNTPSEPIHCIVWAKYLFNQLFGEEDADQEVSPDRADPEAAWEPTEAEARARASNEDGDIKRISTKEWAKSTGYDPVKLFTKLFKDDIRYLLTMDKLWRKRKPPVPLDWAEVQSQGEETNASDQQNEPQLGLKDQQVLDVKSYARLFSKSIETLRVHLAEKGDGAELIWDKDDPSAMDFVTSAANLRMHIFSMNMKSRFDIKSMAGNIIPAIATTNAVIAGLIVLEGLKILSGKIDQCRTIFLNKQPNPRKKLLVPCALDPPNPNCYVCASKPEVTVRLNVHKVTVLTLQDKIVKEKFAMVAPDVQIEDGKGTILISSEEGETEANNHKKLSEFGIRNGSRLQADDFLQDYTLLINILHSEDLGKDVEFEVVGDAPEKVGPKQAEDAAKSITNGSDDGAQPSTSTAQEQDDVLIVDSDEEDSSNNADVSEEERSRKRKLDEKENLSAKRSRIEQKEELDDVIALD
T1 sequence (Q9UBE0 1-346 partner): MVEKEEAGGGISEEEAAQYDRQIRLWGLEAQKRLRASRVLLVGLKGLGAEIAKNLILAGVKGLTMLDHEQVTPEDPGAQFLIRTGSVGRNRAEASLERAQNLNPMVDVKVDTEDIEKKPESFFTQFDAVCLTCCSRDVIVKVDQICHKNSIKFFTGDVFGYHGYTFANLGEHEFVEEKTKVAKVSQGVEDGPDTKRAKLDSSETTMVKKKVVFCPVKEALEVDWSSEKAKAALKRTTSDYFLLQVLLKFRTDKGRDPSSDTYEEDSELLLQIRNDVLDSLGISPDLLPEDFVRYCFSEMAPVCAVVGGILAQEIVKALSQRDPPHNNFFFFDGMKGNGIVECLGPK
Conditions: 50 uM, in vitro. In a few lines:
(§1)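 Here, isoTOP-ABPP measures loss of STP-alkyne labeling at individual lysines after fragment exposure in lysate. Activated esters are dosed at 50 μM, guanidinylating agents at 100 μM; the probe follows at 0.1 mM for 1 h. R ≥4 marks a liganded lysine.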

Experiment [2] has as its target T2, EIF5A2 Eukaryotic translation initiation factor 5A-2 (Homo sapiens, UniProt Q9GZV4).
T2 construct: isoTOP-ABPP experiments performed in cell lysates (in vitro); endogenous in cells; host or cells: soluble proteome of human cancer cell lines (MDA-MB-231; Ramos and Jurkat also prepared)
To be noted: 50 uM, in vitro. An outline of the steps:
as §1

Experiment [3] has as its target T3, CCDC173 Coiled-coil domain-containing protein 173 (Homo sapiens, UniProt Q0VFZ6).
T3 construct: isoTOP-ABPP experiments performed in cell lysates (in vitro); endogenous in cells; host or cells: soluble proteome of human cancer cell lines (MDA-MB-231, Ramos, Jurkat)
To be noted: 50 uM, in vitro. An outline of the steps:
as §1

The target in the next experiment is T4, CCNA2 Cyclin-A2 (Homo sapiens, UniProt P20248).
T4 construct: isoTOP-ABPP experiments performed in cell lysates (in vitro); endogenous in cells; host or cells: soluble proteome of human cancer cell lines (MDA-MB-231; Ramos and Jurkat also prepared)
T4 sequence (P20248 whole entry): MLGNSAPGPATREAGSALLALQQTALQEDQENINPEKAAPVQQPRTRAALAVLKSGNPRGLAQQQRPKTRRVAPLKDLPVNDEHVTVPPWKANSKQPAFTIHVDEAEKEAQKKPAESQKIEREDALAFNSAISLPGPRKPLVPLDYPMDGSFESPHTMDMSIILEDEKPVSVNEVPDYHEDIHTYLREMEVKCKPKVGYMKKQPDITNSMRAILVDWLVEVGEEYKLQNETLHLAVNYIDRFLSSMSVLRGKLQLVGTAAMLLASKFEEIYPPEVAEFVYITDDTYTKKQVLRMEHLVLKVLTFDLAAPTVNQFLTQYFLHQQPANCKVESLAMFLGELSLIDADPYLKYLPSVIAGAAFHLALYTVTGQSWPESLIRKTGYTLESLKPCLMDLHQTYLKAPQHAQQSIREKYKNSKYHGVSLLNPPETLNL
Conditions: 50 uM, in vitro. An outline of the steps: as §1

The target of experiment [4] is T5, ACIN1 Apoptotic chromatin condensation inducer in the nucleus (Homo sapiens, UniProt Q9UKV3).
T5 construct: endogenous in cells; host or cells: MDA-MB-231 lysate
T5 sequence (Q9UKV3 whole entry): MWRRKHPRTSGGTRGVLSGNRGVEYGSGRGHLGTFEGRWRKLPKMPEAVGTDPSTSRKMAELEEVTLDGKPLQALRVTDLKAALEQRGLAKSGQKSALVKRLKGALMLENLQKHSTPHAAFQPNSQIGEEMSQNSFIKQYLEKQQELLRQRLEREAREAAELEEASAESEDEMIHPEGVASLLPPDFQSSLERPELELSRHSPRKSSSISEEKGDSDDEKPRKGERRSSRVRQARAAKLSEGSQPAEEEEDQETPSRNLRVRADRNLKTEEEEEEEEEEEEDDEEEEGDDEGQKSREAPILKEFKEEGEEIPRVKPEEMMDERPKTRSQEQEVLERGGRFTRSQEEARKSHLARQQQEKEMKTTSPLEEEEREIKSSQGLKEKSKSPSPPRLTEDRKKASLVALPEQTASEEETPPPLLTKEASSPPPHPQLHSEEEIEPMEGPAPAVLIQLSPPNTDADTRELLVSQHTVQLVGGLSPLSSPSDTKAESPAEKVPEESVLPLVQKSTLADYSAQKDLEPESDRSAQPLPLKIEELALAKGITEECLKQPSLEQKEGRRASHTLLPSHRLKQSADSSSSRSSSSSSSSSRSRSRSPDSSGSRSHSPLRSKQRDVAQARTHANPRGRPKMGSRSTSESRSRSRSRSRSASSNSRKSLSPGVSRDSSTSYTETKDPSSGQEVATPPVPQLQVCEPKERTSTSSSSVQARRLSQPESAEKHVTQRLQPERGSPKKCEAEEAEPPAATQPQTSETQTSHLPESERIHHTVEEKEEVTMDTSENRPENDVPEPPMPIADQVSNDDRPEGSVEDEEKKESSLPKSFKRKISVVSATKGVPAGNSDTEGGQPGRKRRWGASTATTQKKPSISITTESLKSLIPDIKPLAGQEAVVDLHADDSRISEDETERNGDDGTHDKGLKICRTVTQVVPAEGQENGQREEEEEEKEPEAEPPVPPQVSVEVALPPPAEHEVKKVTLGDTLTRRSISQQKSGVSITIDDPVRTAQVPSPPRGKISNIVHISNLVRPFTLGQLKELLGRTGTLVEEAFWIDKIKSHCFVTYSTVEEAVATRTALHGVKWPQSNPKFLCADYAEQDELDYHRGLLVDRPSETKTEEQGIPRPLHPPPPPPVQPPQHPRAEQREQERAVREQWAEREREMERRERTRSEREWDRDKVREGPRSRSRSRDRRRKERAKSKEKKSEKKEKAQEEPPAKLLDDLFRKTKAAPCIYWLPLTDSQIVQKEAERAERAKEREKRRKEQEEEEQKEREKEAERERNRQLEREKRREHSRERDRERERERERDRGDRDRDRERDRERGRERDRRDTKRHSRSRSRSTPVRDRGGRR
To be noted: 50 uM_231_sol_in vitro. In a few lines:
as §1

T2 sequence (Q9GZV4 whole entry): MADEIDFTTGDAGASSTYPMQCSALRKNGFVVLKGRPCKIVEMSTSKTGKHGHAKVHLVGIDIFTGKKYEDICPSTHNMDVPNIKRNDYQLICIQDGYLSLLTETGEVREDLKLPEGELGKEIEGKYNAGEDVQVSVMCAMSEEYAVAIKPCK
T3 sequence (Q0VFZ6 whole entry, the tested form may be a part): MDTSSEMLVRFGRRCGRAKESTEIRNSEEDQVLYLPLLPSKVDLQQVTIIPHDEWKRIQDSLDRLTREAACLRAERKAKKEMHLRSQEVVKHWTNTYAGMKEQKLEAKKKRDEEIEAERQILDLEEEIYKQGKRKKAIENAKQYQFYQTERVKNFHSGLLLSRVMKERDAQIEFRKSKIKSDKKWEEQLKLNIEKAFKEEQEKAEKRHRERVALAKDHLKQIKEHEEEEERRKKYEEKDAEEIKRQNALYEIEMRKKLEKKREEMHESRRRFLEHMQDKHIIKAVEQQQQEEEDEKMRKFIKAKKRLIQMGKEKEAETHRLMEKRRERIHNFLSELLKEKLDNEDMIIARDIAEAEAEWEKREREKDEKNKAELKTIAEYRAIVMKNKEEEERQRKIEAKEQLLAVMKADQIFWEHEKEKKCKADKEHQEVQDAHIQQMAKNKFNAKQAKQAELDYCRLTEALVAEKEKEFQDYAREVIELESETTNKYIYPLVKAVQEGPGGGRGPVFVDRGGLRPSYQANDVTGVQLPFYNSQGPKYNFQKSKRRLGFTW

`O=C(Oc1c(F)c(F)c(F)c(F)c1F)C(c1ccccc1)c1ccccc1` [fragment 20, Pentafluorophenyl 2,2-diphenylacetate]: the “R value (DMSO/fragment) for probe 1 labeling” value in experiment [1] (Q9UBT2_K409, 231 sol) stood at 4.1.
Consider `O=C(Oc1c(F)c(F)c(F)c(F)c1F)c1cc(C(F)(F)F)cc(C(F)(F)F)c1` [fragment 21, Pentafluorophenyl 3,5-bis(trifluoromethyl)benzoate], for which the “R value (DMSO/fragment) for probe 1 labeling” value is recorded as 5.0 in experiment [2] (Q9GZV4_K47, 231 sol) and 20.0 in experiment [3] (Q0VFZ6_K312, 231 sol).
As to `O=C(Oc1ccc([N+](=O)[O-])cc1[N+](=O)[O-])C(c1ccccc1)c1ccccc1` [fragment 30, 2,4-Dinitrophenyl 2,2-diphenylacetate], the “isoTOP-ABPP reactivity ratio at lysine Q9UBT2_K409” value in experiment [1] (231 sol) is on record as 7.3.
On the same count and under the same terms, in the case of `O=C(Oc1ccc([N+](=O)[O-])cc1[N+](=O)[O-])c1cc(C(F)(F)F)cc(C(F)(F)F)c1` [fragment 31, 2,4-Dinitrophenyl 3,5-bis(trifluoromethyl)benzoate] it was 6.2.
On to `COc1cc(CCC(=O)Oc2ccc([N+](=O)[O-])cc2[N+](=O)[O-])cc(OC)c1OC` [fragment 33, 2,4-Dinitrophenyl 3-(3,4,5-trimethoxyphenyl)propanoate], for which the “isoTOP-ABPP reactivity ratio at lysine P20248_K54” value at CCNA2 Cyclin-A2 (231 sol) is listed as 5.4.
Regarding `O=C(Oc1ccc([N+](=O)[O-])cc1[N+](=O)[O-])c1ccc2ccccc2n1` [fragment 35, 2,4-Dinitrophenyl quinoline-2-carboxylate], the “isoTOP-ABPP ratio (R) at liganded lysine Q0VFZ6_K312” value in experiment [3] (sol, 231) is reported as 14.4.
Turning to `O=C(CCc1coc2cc(F)ccc2c1=O)Oc1ccc([N+](=O)[O-])cc1[N+](=O)[O-]` [fragment 36, 2,4-Dinitrophenyl 3-(7-fluoro-4-oxo-4H-chromen-3-yl)propanoate], the “isoTOP-ABPP ratio (R) at liganded lysine Q9UBT2_K409” value in experiment [1] (sol, 231) is recorded as 3.6.
With `O=C(Oc1ccc([N+](=O)[O-])cc1[N+](=O)[O-])c1ccc(-c2ccccc2)cc1` [fragment 37, 2,4-Dinitrophenyl [1,1′-biphenyl]-4-carboxylate], the “isoTOP-ABPP ratio (R) at liganded lysine P20248_K54” value on CCNA2 Cyclin-A2 (sol, 231) was found to be 0.5.
Turning to `O=C(CC12CC3CC(CC(C3)C1)C2)Oc1ccc([N+](=O)[O-])cc1[N+](=O)[O-]` [fragment 38, 2,4-Dinitrophenyl 2-(adamantan-1-yl)acetate], the “isoTOP-ABPP ratio (R) at liganded lysine Q9GZV4_K47” value in experiment [2] (sol, 231) was determined as 1.8.
`N#Cc1ccc(C(=O)Oc2ccc([N+](=O)[O-])cc2[N+](=O)[O-])cc1` [fragment 44, 2,4-Dinitrophenyl 4-cyanobenzoate]: in experiment [4], the “isoTOP-ABPP ratio, lysine Q9UKV3_K103” value was 1.0.
Still for that read-out and setting: with `O=C(ON1C(=O)CCC1=O)c1cc(C(F)(F)F)cc(C(F)(F)F)c1` [fragment 46, 3,5-Bis(trifluoromethyl)benzoic acid NHS ester] the figure was 16.6.

(Values after patent US20210255193A1, “LYSINE REACTIVE PROBES AND USES THEREOF” (The Scripps Research Institute, priority 2017, published 2021).)
